Test results taken from PMC8609367 (mBio, 2021).
≈ marks a conversion by molar mass, not a printed value. Where “and” joins values, the source holds several entries; their conditions need not be identical. Identical values can stand only once.

Assays:
[1] = tested on: T helper cell-dependent germinal center B cell response; parameters: method as in PMID 31537789; settings: cited from earlier work
hFKBP12 = molecular target: T1, hFKBP12 (Homo sapiens, UniProt P62942); assay: ITC binding to human FKBP12
T1 construct: His6 (thrombin-cleavable) (N, cleaved yes); made in house; host or cells: E. coli BL21(DE3)
T1 sequence (P62942 whole entry): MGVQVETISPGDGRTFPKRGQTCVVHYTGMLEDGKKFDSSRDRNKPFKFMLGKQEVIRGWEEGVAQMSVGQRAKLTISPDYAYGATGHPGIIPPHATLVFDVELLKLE
Method: (§1) The lower panel represents the integrated heat changes upon binding (kilocalories/mole) corrected for the protein and ligand heat of dilution. Fitting was performed using the MicroCal Origin software. Download FIG S2, TIF file, 0.9 MB.
(§2) After the size exclusion purification, the proteins were concentrated to ∼2 mg/ml using a 3,000-MWCO Amicon concentrator. Proteins were exhaustively dialyzed at 4°C in the isothermal titration calorimetry (ITC) buffer (50 mM sodium phosphate, 50 mM sodium chloride, pH 7.0). Experiments were performed using a VP-ITC instrument (MicroCal Inc., Northampton, MA) at 25°C. All solutions were degassed under vacuum at 25°C for 15 min immediately before use. […] was loaded into the syringe at a concentration of 25 μM and titrated in by a first injection of 2 μl followed by 22 injections of 6 μl. Following each injection, the cell was equilibrated for 3 min. […] The proteins were loaded in the cell at a concentration of 10 μM with constant stirring at 307 rpm (25°C). […] The enthalpy of binding (ΔH, kilocalories/mole) was determined by integration of the injection peaks minus the controls for the heat of dilution (equivalent experiments without the ligand and without the protein). The MicroCal Origin software (OriginLab Corp., Northampton, MA) was used for a variety of binding models.

Cryptococcus neoformans = tested on: Cryptococcus neoformans; parameters: method as in PMID 31537789; settings: C. neoformans; cited from earlier work
[2] = tested on: interleukin-2 (IL-2) production in primary murine CD4+ T cells; parameters: method as in PMID 31537789; settings: reduction of IL-2 production in primary murine CD4+ T cells; cited from earlier work
AfFKBP12 = molecular target: T2, AfFKBP12 (Aspergillus fumigatus, UniProt Q4WLV6); assay: biochemical; format: binding; settings: for TΔS / ΔG° / ΔH / Stoichiometry / Kd: ITC, 25°C, average from triplicates; for Stoichiometry: ligand-FKBP12
T2 construct: His6 (thrombin-cleavable) (N, cleaved yes); made in house; host or cells: E. coli BL21(DE3)
T2 sequence (Q4WLV6 1-112): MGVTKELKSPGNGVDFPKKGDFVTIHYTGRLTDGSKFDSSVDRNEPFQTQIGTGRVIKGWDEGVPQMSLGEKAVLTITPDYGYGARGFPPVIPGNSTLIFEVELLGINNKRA
Method: as §1, §2

Candida albicans = tested on: Candida albicans; parameters: method as in PMID 31537789; settings: in vitro; cited from earlier work
[3] = tested on: cryptococcal model of invasive fungal infection; parameters: method as in PMID 31537789; settings: murine model; cited from earlier work
McFKBP12 = molecular target: T3, McFKBP12 (Mucor circinelloides, UniProt U3N5X4); assay: ITC binding to M. circinelloides FKBP12; settings: for Kd / Stoichiometry / TΔS / ΔG° / ΔH: ITC, 25°C, average from triplicates
T3 sequence (U3N5X4 1-108): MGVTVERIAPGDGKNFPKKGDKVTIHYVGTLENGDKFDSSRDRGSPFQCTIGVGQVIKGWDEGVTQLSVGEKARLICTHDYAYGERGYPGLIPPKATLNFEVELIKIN
Method: as §1, §2

[4] = Solubility noted in ITC set-up; format: physicochemical; settings: restricting the usable concentration in ITC
Method: as §2

[5] = tested on: A. fumigatus strains expressing McFKBP12 or McFKBP12-Y88F; assay: Growth assay of A. fumigatus strains expressing FKBP12 variants in presence of FK506; format: cell-based, Aspergillus fumigatus
Method: A. fumigatus wild-type strain akuB^KU80 was used for growth and recombinant strain generation experiments. A. fumigatus wild-type or recombinant strains were cultured on glucose minimal medium (GMM) or RPMI liquid medium at 37°C for 24- or 48-h- periods. […] All growth experiments were repeated as technical triplicates, each also as biological triplicates.

[6] = parameters: method as in PMID 1380976; settings: cited from earlier work
FKBP12 = tested on: FKBP12; parameters: method as in PMID 1380976; settings: cited from earlier work
[7] = parameters: method as in PMID 1380976; settings: cited from earlier work; remark: listed apart in the source
[8] = ITC, 25°C, average from triplicates

| SMILES | Stoichiometry (hFKBP12; [8]) | TΔS (hFKBP12; [8]) | ΔG° (hFKBP12; [8]) | ΔH (hFKBP12; [8]) | TΔS (AfFKBP12) | ΔG° (AfFKBP12) | ΔH (AfFKBP12) | Stoichiometry (AfFKBP12) | Kd (AfFKBP12) | Kd (McFKBP12) | Stoichiometry (McFKBP12) | TΔS (McFKBP12) | ΔG° (McFKBP12) | ΔH (McFKBP12) | further results |
| --- | --- | --- | --- | --- | --- | --- | --- | --- | --- | --- | --- | --- | --- | --- | --- |
| C=CCC1C=C(C)CC(C)CC(OC)C2OC(O)(C(=O)C(=O)N3CCCCC3C(=O)OC(C(C)=CC3CCC(O)C(OC)C3)C(C)C(O)CC1=NNC(C)=O)C(C)CC2OC (stereo not drawn) [APX879] | 1.41 ± 0.03 | 7.4 ± 0.8 kcal/mol | -9.2 ± 0.9 kcal/mol | -1.8 ± 0.4 kcal/mol | 7.2 ± 1.0 kcal/mol | -8.0 ± 1.0 kcal/mol | -1.2 ± 0.4 kcal/mol | 1.96 ± 0.13 | 462 nM | ~120 nM and 126 nM | 0.93 ± 0.17 | 7.4 ± 0.2 kcal/mol | -9.4 ± 0.2 kcal/mol | -2.0 ± 0.1 kcal/mol | Ability to stimulate T helper cell-dependent germinal center B cell response ([1]; in comparison to FK506 treatment, animal models): significant reduction; Immunosuppressive activity in vivo ([1]; murine model): reduced immunosuppressive activity; Reduction in affinity compared to FK506 (hFKBP12; ITC KD, APX879 versus FK506): ~40 fold; Kd (hFKBP12; [8]): ~120 nM and 119 nM; Reduction in antifungal efficacy compared to FK506 (Cryptococcus neoformans): 17 fold; Reduced immunosuppressive activity compared to FK506 [2]: 71 fold; Reduction in affinity compared to FK506 (AfFKBP12; ITC KD, APX879 versus FK506): 100 fold; MIC (Candida albicans): 8 µg/mL (≈ 9.3 µM); Efficacy in cryptococcal model [3]: confirmed efficacy; Reduction in affinity compared to FK506 (McFKBP12; ITC KD, APX879 versus FK506): ~40 fold; Solubility [4]: low solubility |
| C=CC[C@@H]1/C=C(\C)C[C@H](C)C[C@H](OC)[C@H]2O[C@@](O)(C(=O)C(=O)N3CCCC[C@H]3C(=O)O[C@H](/C(C)=C/[C@@H]3CC[C@@H](O)[C@H](OC)C3)[C@H](C)[C@@H](O)CC1=O)[C@H](C)C[C@@H]2OC [FK506, reference compound] | 1.09 ± 0.03 | -3.3 ± 1.2 kcal/mol | -12.0 ± 1.6 kcal/mol | -15.0 ± 1.1 kcal/mol | 4.6 ± 0.3 kcal/mol | -11.3 ± 0.4 kcal/mol | -6.7 ± 0.3 kcal/mol | 2.02 ± 0.06 | 4.7 ± 0.6 nM | 3 ± 0.7 nM | 1.06 ± 0.06 | 1.9 ± 0.2 kcal/mol | -11.7 ± 0.2 kcal/mol | -9.8 ± 0.1 kcal/mol | Toxicity in animal models ([1]; animal models): acute toxicity; FK506 sensitivity of A. fumigatus strain expressing McFKBP12 ([5]; Affkbp12 locus replaced with Mcfkbp12, increasing concentrations of FK506): does not restore A. fumigatus FK506 sensitivity; FK506 sensitivity of A. fumigatus strain expressing McFKBP12-Y88F ([5]; McFKBP12-Y88F mutant): restoration of FK506 sensitivity |
| CC[C@@H]1/C=C(\C)[C@@H](O)[C@H](C)C[C@H](OC)[C@H]2O[C@@](O)(C(=O)C(=O)N3CCCC[C@H]3C(=O)O[C@H](/C(C)=C/[C@@H]3CC[C@@H](O)[C@H](OC)C3)[C@H](C)[C@@H](O)CC1=O)[C@H](C)C[C@@H]2OC [L-685,818] | – | – | – | – | – | – | – | – | – | – | – | – | – | – | Antifungal activity [6]: retains antifungal activity; Binding to FKBP12 (FKBP12): still binds to FKBP12; Immunosuppressive activity [7]: nonimmunosuppressive |
